For 8 compounds, EC50 and Emax results are on record in patent publication US12275733B2, “Substituted pyrido[3,4-b]indoles for the treatment of cartilage disorders” (Sanofi, priority 2016, dated 2025).

The subject of one test is ATDC5 cells. As to the kind of experiment: Chondrogenesis activity assay in ATDC5 cells (collagen type II induction, immunofluorescence). The format is cell-based, mouse. The conditions noted are these: Mus musculus; for EC50: collagen type II induction in ATDC5 cells, concentration reaching 50% of maximum induction; for Emax: maximum percent induction of collagen type II relative to internal reference compound at 10 μM, ATDC5 cells. In outline:
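Collagen type II was stained in fixed, permeabilized cells with an Alexa Fluor 488 secondary and measured by high-content fluorescence imaging. ATDC5 cells had 4 days at 37 °C in insulin-supplemented differentiation medium with compound, typically 40 nM–10 μM, 0.1% DMSO. DMSO wells and a 10 μM internal reference compound were used for normalization.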

Test [1] has as its system primary human chondrocyte pellet cultures. As to the kind of experiment: Chondrogenesis activity assay in primary human chondrocyte pellet cultures (proteoglycan (aggrecan) induction, Blyscan assay). Type of test: cell-based. The conditions noted are these: for EC50: 336 h, proteoglycan (aggrecan) induction, primary human chondrocyte pellets, 2 weeks culture; for Emax: Homo sapiens, Chondrocyte, maximum percent proteoglycan (aggrecan) induction relative to the internal reference compound at 10 μM.

The term EC50 denotes the concentration that produces a half-maximal response. In general, Emax refers to the size of the effect at its maximum, as opposed to the concentration needed. With `Cc1nccc2c1[nH]c1c(-c3cc(C(F)(F)F)cc(C(F)(F)F)c3)cc(Cl)cc12` [Example 251, 8-(3,5-Bis-trifluoromethyl-phenyl)-6-chloro-1-methyl-9H-pyrido[3,4-b]indole], in the test on ATDC5 cells, the EC50 was more than 10 µM and the Emax was less than 20%. In test [1], this compound showed an EC50 of 9.1 µM and an Emax of 40 to 100%.
The matching figures for `CCn1c2c(-c3ccc(OCC4(C)COC4)cc3)cc(Cl)cc2c2ccnc(C)c21` [Example 256, 6-Chloro-9-ethyl-1-methyl-8-[4-(3-methyl-oxetan-3-ylmethoxy)-phenyl]-9H-pyrido[3,4-b]indole]: 0.16 µM, more than 80%, 1.3 µM and more than 200%.
The like results for `Cc1nccc2c1[nH]c1c(-c3cccc(C(O)c4ccccn4)c3)cc(Cl)cc12` (centres unmarked) [Example 258, [3-(6-Chloro-1-methyl-9H-pyrido[3,4-b]indol-8-yl)-phenyl]-pyridin-2-yl-methanol] were, in that order, more than 3.3 µM, less than 20%, 8.2 µM and 40 to 100%.
In the test on ATDC5 cells, `Cc1nccc2c1[nH]c1c(-c3ccc(C(=O)NCCN(C)C)cc3)cc(Cl)cc12` [Example 264, 4-(6-Chloro-1-methyl-9H-pyrido[3,4-b]indol-8-yl)-N-(2-dimethylamino-ethyl)-benzamide] came in with an EC50 of more than 1.1 µM and an Emax of 20 to 50%. Besides, in test [1], the EC50 was found to be 1.5 µM and the Emax lay within 40 to 100%.
The matching figures for `Cc1nccc2c1[nH]c1c(-c3cccc(C(=O)NCCN(C)C)c3)cc(Cl)cc12` [Example 265, 3-(6-Chloro-1-methyl-9H-pyrido[3,4-b]indol-8-yl)-N-(2-dimethylamino-ethyl)-benzamide]: more than 1.1 µM, less than 20%, 3.8 µM and less than 40%.
For the compound `Cc1nccc2c1[nH]c1c(-c3ccc(OCc4nccc5ccccc45)cc3)cc(Cl)cc12` [Example 270, 6-Chloro-8-[4-(isoquinolin-1-ylmethoxy)-phenyl]-1-methyl-9H-pyrido[3,4-b]indole], the concentration giving a half-maximal response (EC50) in the test on ATDC5 cells was more than 1.1 µM; in test [1] it was 4.3 µM. Moreover, the values for the Emax (in the test with ATDC5 cells; in test [1]) were 20 to 50% and 40 to 100%, respectively.
The matching figures for `Cc1nccc2c1[nH]c1c(-c3cccc(OCc4nccn4C)c3)cc(Cl)cc12` [Example 271, 6-Chloro-1-methyl-8-[3-(1-methyl-1H-imidazol-2-ylmethoxy)-phenyl]-9H-pyrido[3,4-b]indole]: more than 3.3 µM, 4.9 µM, 20 to 50% and more than 200%.
As to `Clc1cc(-c2cnn(Cc3cccnc3)c2)c2c(c1)c1ccncc1n2CC1CC1` [Example 288, 6-Chloro-9-cyclopropylmethyl-8-(1-pyridin-3-ylmethyl-1H-pyrazol-4-yl)-9H-pyrido[3,4-b]indole], in the test with ATDC5 cells, a half-maximal effect (EC50) was put at 0.52 µM and the Emax was more than 80%. In test [1], the EC50 stood at 1.2 µM and the Emax was more than 200%.
